Experimental data as given in US20210260009A1, “METHODS AND COMPOSITIONS FOR THE TREATMENT OF A RENAL DISEASE” (priority 2020, published 2021).

Key:
[1] = molecular target: T1, E. coli apo-tryptophanase (TnaA) (Escherichia coli, UniProt P0A853); test: In vitro tryptophanase assay (indole production by purified TnaA, Kovac's reagent); assay type: biochemical
T1 construct: purchased Sigma-Aldrich
Experimental: E. coli apo-tryptophanase (Sigma-Aldrich) was resuspended in 1 ml 100 mM potassium phosphate pH 8 buffer, aliquoted and kept at −20° C. 5 μl of apo-tryptophanase were added to 120 μl of 100 mM potassium phosphate pH 8 buffer with 1 mM pyrodxal-5-phosphate (PLP) and various treatments (NaCl, NaHS, L-cysteine, DTT or Na2S4) and incubated for 45 min at 37° C. Then 125 μl of 100 mM potassium phosphate with 5 mM L-tryptophan were added and the samples were incubated for 1 h at 37° C. Then 250 μl of 20% TCA were added to the samples, followed by a 15 min incubation on ice to precipitate TnaA. […] For the WT and ΔdecR TnaA activity assay, TnaA was purified from 10 ml bacterial cultures grown for 3 h in LB and then supplemented with 5 mM L-cysteine for 1 h, using the His-Spin protein miniprep kit (Zymo research). The purified protein was diluted 1:10 in 250 μl of 100 mM potassium phosphate pH 8 buffer with 1 mM PLP and 5 mM L-tryptophan and incubated for 1 h at 37° C., further processing was performed as mentioned above. TnaA activity was normalized to purified protein concentration, measured using BCA assay kit (Thermo Fisher).

E. coli TnaA = molecular target: T2, E. coli TnaA (Escherichia coli, UniProt P0A853); test: TnaA S-sulfhydration by pull-down and Western blot (E. coli lysates, purified TnaA); assay type: biochemical
T2 construct: made in house; host or cells: E. coli K-12 carrying the chromosomal tnaA-his allele under its native promoter (W3110 for purification)
Experimental: TnaA purity was determined by Coomassie blue staining.

E. coli lysates = test: Pull-down of S-sulfhydrated proteins from E. coli lysates (Coomassie / silver stain)
WT E. coli cultures = test: Indole in E. coli culture supernatants (Kovac's reagent and LC-MS/MS); assay type: cell-based; settings: LB broth supplemented
Experimental: (§1) E. coli K-12 BW25113 strain were used in all the experiments (H2S production, indole production and in vivo experiments). For technical reasons, E. coli K-12 MG1655 was used in the cloning process to generate ΔdecR and tnaA-his, and E. coli K-12 W3110 was used for expressing and purifying TnaA-His. Bacteria were grown in LB broth (Merck) at 37° C. with shaking (250 rpm) aerobically or without shaking anaerobically and where mentioned, LB was supplemented with L-cysteine (Sigma-Aldrich), sodium hydrosulfide (Sigma-Aldrich) and/or L-tryptophan (Sigma-Aldrich). For selection on LB+Chloramphenicol (Cm) agar plates, a concentration of 10 μg/ml Cm was used. The E. coli tnaA739::kan strain was obtained from Yale University Coli Genetic Stock Center (CGSC) as part of the Keio collection (Baba et al., 2006). […]
The TMT fractions were analyzed by LC-MS3 on an Orbitrap Fusion™ Lumos™ Tribrid™ mass spectrometer. Labelled peptide samples were analyzed with an LC-MS3 data collection strategy (McAlister G C et al (2014) Anal. Chem. 86:7150-8) on an Orbitrap Fusion mass spectrometer (Thermo Fisher Scientific) equipped with a Thermo Easy-nLC 1200 for online sample handling and peptide separations. […] E. coli TnaA-His samples were analyzed at the Mass Spectrometry and Proteomics Resource Laboratory. […]

E. coli = E. coli sulfide (H2S) production from L-cysteine in culture (lead acetate, methylene blue) and growth; assay type: cell-based; settings: LB supplemented with cysteine, aerobic or anaerobic
Experimental: as §1, with “used.” for “used. The E. coli tnaA739::kan strain was obtained from Yale University Coli Genetic Stock Center (CGSC) as part of the Keio collection (Baba et al., 2006).”
Lead acetate paper was prepared by incubating pre-cut Whatman paper in 20 mM lead acetate solution for 20 min at room temperature and then was dried for 20 min at 110° C. and kept in the dark (Hine and Mitchell, 2017). […] 200 μl were plated in 96-well plates in duplicate and analyzed by lead acetate sulfide assay as described above. […] The samples were vortexed briefly and incubated for 20 min at 37° C., thereafter they were centrifuged for 4 min at max speed and the supernatants were transferred to a 96-well plate to determine absorbance at OD670 nm. […] Then 300 μl of DPD/FeCl3 were added and the samples were incubated at 37° C. for 20 min, centrifuged for 4 min at max speed and absorbance was measured in OD670 nm. […]

[2] = treated E. coli lysates, Western blot

T2 sequence (P0A853 other isoform, or with tags, fused parts or gaps): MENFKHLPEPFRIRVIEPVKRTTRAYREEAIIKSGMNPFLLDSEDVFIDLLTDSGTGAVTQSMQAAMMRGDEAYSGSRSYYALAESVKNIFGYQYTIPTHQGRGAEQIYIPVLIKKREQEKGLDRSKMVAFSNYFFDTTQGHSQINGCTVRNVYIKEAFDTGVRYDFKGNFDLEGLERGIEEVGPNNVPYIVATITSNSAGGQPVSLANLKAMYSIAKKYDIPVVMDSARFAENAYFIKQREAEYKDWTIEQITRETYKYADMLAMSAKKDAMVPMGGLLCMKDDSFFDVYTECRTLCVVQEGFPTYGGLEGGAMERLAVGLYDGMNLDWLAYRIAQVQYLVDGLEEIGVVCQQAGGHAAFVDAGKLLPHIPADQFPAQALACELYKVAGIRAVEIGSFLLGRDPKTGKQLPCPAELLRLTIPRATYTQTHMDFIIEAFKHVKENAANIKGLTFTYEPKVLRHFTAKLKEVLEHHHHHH
T1 sequence (P0A853 whole entry): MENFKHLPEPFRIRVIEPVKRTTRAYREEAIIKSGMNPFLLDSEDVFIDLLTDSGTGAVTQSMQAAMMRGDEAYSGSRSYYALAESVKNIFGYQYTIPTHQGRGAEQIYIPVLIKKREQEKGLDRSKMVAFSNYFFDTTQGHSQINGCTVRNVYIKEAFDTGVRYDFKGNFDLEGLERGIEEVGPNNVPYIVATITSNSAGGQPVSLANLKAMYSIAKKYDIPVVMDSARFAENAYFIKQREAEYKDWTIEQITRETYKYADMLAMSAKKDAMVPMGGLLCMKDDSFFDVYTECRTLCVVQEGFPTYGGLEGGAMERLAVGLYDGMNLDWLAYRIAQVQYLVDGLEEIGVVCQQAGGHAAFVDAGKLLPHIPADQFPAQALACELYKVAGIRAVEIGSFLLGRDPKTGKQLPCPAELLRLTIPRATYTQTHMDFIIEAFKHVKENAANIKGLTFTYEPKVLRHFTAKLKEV

Compound	TnaA S-sulfhydration (E. coli TnaA; [2])	S-sulfhydration of proteins (E. coli lysates; treatment of bacterial lysates)	indole concentrations in the supernatants (WT E. coli cultures)	further results
O[C@H](CS)[C@H](O)CS (racemic) [DTT, dithiothreitol]	–	–	–	increase of TnaA activity ([1]; assay control): 318%
OO [H2O2]	reduced	reduced the detection of S-sulfhydration proteins	–	–
[Na+].[Na+].[S-]SS[S-] [Na2S4, disodium tetrasulfide]	–	–	–	TnaA S-sulfhydration (E. coli TnaA; purified E. coli TnaA, incubation): led to TnaA S-sulfhydration; reduction of TnaA enzymatic activity [1]: 60%
S [NaHS, sodium hydrosulfide]	increased	induced higher S-sulfhydration levels	reduced indole concentrations	–
N[C@@H](CS)C(=O)O [cysteine, L-cysteine]	–	–	reduced indole concentrations	E. coli growth (E. coli): without any effects on growth; sulfide production by E. coli (E. coli; lead acetate assay): dose-dependent manner; S-sulfhydration of proteins (E. coli lysates; lysates of E. coli grown in supplemented media vs LB alone): higher level of S-sulfhydration
